Read-outs that look alike come from different tables or passages of the source. Residues, ends and D or L forms follow the SMILES beside them.
System: Mortierella elongata AG77
Assay: Carbon source utilisation in Biolog 96-well plates, formazan formation after tetrazolium addition
Format: cell-based
Details: for Metabolized: Metabolized = more formazan formation than a control containing no carbon source, observed visually at 2 h, 24 h, 148 h; for Carbon sources that Mortierella elongata AG77 can metabolize: summary of Table 3
Experimental: Two 300 mL volumes of growth medium comprising 1 g/L KH2PO4, 1 g/L MgSO4 7H2O, 0.1 g/L CaCl2, 0.02 g/L FeNaEDTA, 0.1 g/L NaCl, and either 1 g/L NH4NO3 or 20 g/L sucrose were prepared. Acidity was adjusted to 5.5 using NaOH and volumes of growth medium were autoclaved 30 min at 121° C. to sterilize. Aliquots of 200 μL of carbon-free medium or nitrogen-free medium were pipetted into each well of a set of 96-well plates previously prepared with lyophilized putative carbon or nitrogen sources (Biolog Inc., Hayward, Calif.). Inocula were prepared by perforating a culture of Mortierella elongata AG77 grown on 20 g/L potato dextrose agar with a 3 mm diameter cork borer and separating the surface mycelial mat from the solid growth medium using tweezers. Each well was inoculated with one inoculum. Cultures were incubated at 21° C. for 24 hours to allow metabolic changes to stabilize, and then 100 μL of 3 g/L tetrazolium chloride in water was added to each well. Formazan formation was observed visually at 2 h, 24 h, and 148 h.
Conclusions were based on rate and intensity of formazan formation using the 3-4,5-dimethylthiazol-2-yl)-2,5-diphenyltetrazolium bromide (MTT) assay. “Metabolized” indicates more formazan formation than a control containing no carbon source, and “Toxic” indicates less formazan formation than a control containing no carbon source. “Metabolized” and “Toxic” assignments are mutually exclusive. In this example, a compound may be “Metabolized” or “Toxic,” but not both.

[1] = compound as carbon source, Toxic = less formazan formation than a control containing no carbon source

C[C@@H](O)[C@H](O)[C@H](O)[C@@H](O)C=O [D-Fucose]
Metabolized (compound as carbon source): yes | Toxic [1]: no | Carbon sources that Mortierella elongata AG77 can metabolize: can metabolize

O=C(O)C(O)C(O)C(=O)O (stereo not drawn) [m-Tartaric Acid]
Metabolized (compound as carbon source): yes | Carbon sources that Mortierella elongata AG77 can metabolize: can metabolize

O=C[C@H](O)[C@@H](O)[C@H](O)[C@H](O)COP(=O)(O)O [D-Glucose-6-Phosphate]
Toxic: no | Metabolized (compound as carbon source): yes | Carbon sources that Mortierella elongata AG77 can metabolize: can metabolize

OC[C@H]1O[C@@](CO)(O[C@H]2O[C@H](CO)[C@@H](O)[C@H](O)[C@H]2O)[C@@H](O)[C@@H]1O [Sucrose]
Toxic: no | Metabolized (compound as carbon source): no

CC(O)CO (stereo not drawn) [1,2-Propanediol]
Metabolized (compound as carbon source): yes | Toxic [1]: no | Carbon sources that Mortierella elongata AG77 can metabolize: can metabolize

O=C(O)C[C@@H](O)C(=O)O [D-Malic Acid]
Metabolized (compound as carbon source): no | Toxic [1]: no

COC1OC(CO)C(O)C(O)C1O [α-Methyl-D-Mannoside]
Metabolized (compound as carbon source): no | Toxic [1]: no

OC[C@H]1O[C@@H]2O[C@H]3[C@H](O)[C@@H](O)[C@@H](O[C@H]4[C@H](O)[C@@H](O)[C@@H](O[C@H]5[C@H](O)[C@@H](O)[C@@H](O[C@H]6[C@H](O)[C@@H](O)[C@@H](O[C@H]7[C@H](O)[C@@H](O)[C@@H](O[C@H]8[C@H](O)[C@@H](O)[C@@H](O[C@H]9[C@H](O)[C@@H](O)[C@@H](O[C@H]1[C@H](O)[C@H]2O)O[C@@H]9CO)O[C@@H]8CO)O[C@@H]7CO)O[C@@H]6CO)O[C@@H]5CO)O[C@@H]4CO)O[C@@H]3CO [γ-Cyclodextrin]
Metabolized (compound as carbon source): no | Toxic [1]: no

O=C[C@@H](O)[C@@H](O)[C@H](O)[C@H](O)CO [D-Mannose]
Toxic: no | Metabolized (compound as carbon source): no

O=P(O)(O)OCC(O)CO (racemic) [D,L-α-Glycerol- Phosphate]
Metabolized (compound as carbon source): no | Toxic [1]: no

C[C@H](O)[C@@H](O)[C@@H](O)[C@H](O)C=O [L-Fucose]
Metabolized (compound as carbon source): no | Toxic [1]: no

O=C[C@H](O)[C@@H](O)[C@@H](O)[C@H](O)C(=O)O [D-Galacturonic Acid]
Toxic: no | Metabolized (compound as carbon source): no

O=CO [Formic Acid]
Metabolized (compound as carbon source): no | Toxic [1]: no

O=C(CO)[C@@H](O)[C@@H](O)[C@H](O)CO [D-Tagatose]
Toxic: no | Metabolized (compound as carbon source): no

O=C[C@H](O)[C@@H](O)[C@H](O)[C@H](O)C(=O)O [D-Glucuronic Acid]
Toxic: no | Metabolized (compound as carbon source): yes | Carbon sources that Mortierella elongata AG77 can metabolize: can metabolize

C[C@H](N)C(N)=O [L-Alaninamide]
Metabolized (compound as carbon source): yes | Toxic [1]: no | Carbon sources that Mortierella elongata AG77 can metabolize: can metabolize

COC(=O)CCC(=O)O [Mono Methyl Succinate]
Toxic: no

O=C1CCC(C(=O)O)O1 (stereo not drawn) [α-Hydroxy Glutaric Acid-γ-Lactone]
Metabolized (compound as carbon source): no | Toxic [1]: no

C[C@H](O)[C@H](O)[C@@H](O)[C@@H](O)C=O [L-Rhamnose]
Metabolized (compound as carbon source): no | Toxic [1]: no

CC(=O)N[C@H]1[C@H]([C@H](O)[C@H](O)CO)OC(O)(C(=O)O)C[C@@H]1O (stereo partly drawn) [N-Acetyl-Neuraminic Acid]
Metabolized (compound as carbon source): yes | Toxic [1]: no | Carbon sources that Mortierella elongata AG77 can metabolize: can metabolize

OC[C@@H](O)[C@@H](O)[C@H](O)[C@H](O)CO [D-Mannitol]
Toxic: no | Metabolized (compound as carbon source): no

OC[C@H]1O[C@@H]2O[C@H]3[C@H](O)[C@@H](O)[C@@H](O[C@H]4[C@H](O)[C@@H](O)[C@@H](O[C@H]5[C@H](O)[C@@H](O)[C@@H](O[C@H]6[C@H](O)[C@@H](O)[C@@H](O[C@H]7[C@H](O)[C@@H](O)[C@@H](O[C@H]1[C@H](O)[C@H]2O)O[C@@H]7CO)O[C@@H]6CO)O[C@@H]5CO)O[C@@H]4CO)O[C@@H]3CO [α-Cyclodextrin]
Metabolized (compound as carbon source): no | Toxic [1]: no

OC[C@H]1O[C@@H](O[C@H]2[C@H](O)[C@@H](O)[C@@H](O)O[C@@H]2CO)[C@H](O)[C@@H](O)[C@H]1O [α-D-Lactose]
Metabolized (compound as carbon source): no

CCC(O)C(=O)O (stereo not drawn) [α-Hydroxy Butyric Acid]
Metabolized (compound as carbon source): no | Toxic [1]: no

CCC(=O)C(=O)O [α-Keto-Butyric Acid]
Metabolized (compound as carbon source): no | Toxic [1]: no

N[C@@H](C(=O)O)[C@@H](O)[C@H](O)[C@H](O)CO [D-Glucosaminic Acid]
Metabolized (compound as carbon source): yes | Toxic [1]: no | Carbon sources that Mortierella elongata AG77 can metabolize: can metabolize

CCCCCC(=O)O [Caproic Acid]
Metabolized (compound as carbon source): no | Toxic [1]: no

OC[C@@]12OC[C@@H](O1)[C@@H](O)[C@@H](O)[C@@H]2O [Sedoheptulosan]
Metabolized (compound as carbon source): no | Toxic [1]: no

O=P(O)(O)O[C@H]1O[C@H](CO)[C@@H](O)[C@H](O)[C@H]1O [D-Glucose-1-Phosphate]
Metabolized (compound as carbon source): yes | Carbon sources that Mortierella elongata AG77 can metabolize: can metabolize

O=C(O)CC(CC(=O)O)C(=O)O [Tricarballylic Acid]
Toxic: no | Metabolized (compound as carbon source): yes | Carbon sources that Mortierella elongata AG77 can metabolize: can metabolize

CC(=O)O [Acetic Acid]
Metabolized (compound as carbon source): no

O=C(O)c1ccccc1O [2-Hydroxy Benzoic Acid]
Metabolized (compound as carbon source): no

O=C(O)C(=O)C(C(=O)O)C(O)C(=O)O (stereo not drawn) [Oxalomalic Acid]
Toxic: no | Metabolized (compound as carbon source): no

CCCC(=O)O [Butyric Acid]
Toxic: no | Metabolized (compound as carbon source): no

O=C(O)[C@]1(O)C[C@@H](O)[C@@H](O)[C@H](O)C1 [Quinic Acid]
Toxic: no | Metabolized (compound as carbon source): no

NCC(=O)N[C@@H](CC(=O)O)C(=O)O [Glycyl-L-Aspartic Acid] (H-Gly-Asp-OH)
Metabolized (compound as carbon source): yes | Toxic [1]: no | Carbon sources that Mortierella elongata AG77 can metabolize: can metabolize

O=C(O)CC(Br)C(=O)O (stereo not drawn) [Bromo Succinic Acid]
Metabolized (compound as carbon source): no | Toxic [1]: no

O=C[C@@H](O)[C@H](O)[C@H](O)CO [D-Arabinose]
Toxic: no | Metabolized (compound as carbon source): no

OC[C@H]1O[C@H](OCC2O[C@@H](O)[C@H](O)[C@@H](O)[C@@H]2O)[C@H](O)[C@@H](O)[C@H]1O (stereo partly drawn) [D-Melibiose]
Metabolized (compound as carbon source): no | Toxic [1]: no

O=C(CO)[C@@H](O)[C@H](O)[C@@H](O)CO [L-Sorbose]
Toxic: no | Metabolized (compound as carbon source): no

O=C(O)CCCO [γ-Hydroxy Butyric Acid]
Metabolized (compound as carbon source): no | Toxic [1]: no

C[C@H](O)[C@@H](N)C(=O)O [D-Threonine]
Toxic: no | Metabolized (compound as carbon source): yes | Carbon sources that Mortierella elongata AG77 can metabolize: can metabolize

O=C(O)[C@@H](O)[C@H](O)C(=O)O [D-Tartaric Acid]
Metabolized (compound as carbon source): no

NCC(O)c1ccc(O)cc1 (racemic) [D,L-Octopamine]
Metabolized (compound as carbon source): no | Toxic [1]: no

NCC(=O)N1CCC[C@H]1C(=O)O [Glycyl-L-Proline] (H-Gly-Pro-OH)
Toxic: no | Metabolized (compound as carbon source): no

OC[C@@H](O)[C@@H](O)[C@H](O)[C@@H](O)CO [D-Sorbitol]
Toxic: no | Metabolized (compound as carbon source): yes | Carbon sources that Mortierella elongata AG77 can metabolize: can metabolize

O=C(O)Cc1ccc(O)cc1 [p-Hydroxy Phenyl Acetic Acid]
Metabolized (compound as carbon source): no | Toxic [1]: no

O=C(O)[C@@H](O)[C@@H](O)[C@H](O)[C@@H](O)C(=O)O [D-Saccharic Acid]
Toxic: no | Metabolized (compound as carbon source): no

COC(=O)[C@@H](C)O [D-Lactic Acid Methyl Ester]
Metabolized (compound as carbon source): yes | Toxic [1]: no | Carbon sources that Mortierella elongata AG77 can metabolize: can metabolize

CC(=O)N[C@@H](CO)[C@@H](O)[C@H](O)[C@H](O)CO [N-Acetyl-D-Glucosaminitol]
Metabolized (compound as carbon source): no | Toxic [1]: no

O=C(O)/C=C/C(=O)O [Fumaric Acid]
Toxic: no | Metabolized (compound as carbon source): yes | Carbon sources that Mortierella elongata AG77 can metabolize: can metabolize

O=C(O)CC(=O)O [Malonic Acid]
Metabolized (compound as carbon source): no

O=C(O)[C@H](O)[C@@H](O)[C@H](O)[C@H](O)CO[C@H]1O[C@H](CO)[C@H](O)[C@H](O)[C@H]1O [Melibionic Acid]
Metabolized (compound as carbon source): no | Toxic [1]: no

O=C[C@H](O)[C@H](O)[C@H](O)CO [D-Ribose]
Toxic: no | Metabolized (compound as carbon source): no

O=C(CO)[C@H](O)[C@H](O)[C@H](O)CO [D-Psicose]
Toxic: no | Metabolized (compound as carbon source): yes | Carbon sources that Mortierella elongata AG77 can metabolize: can metabolize

OC[C@H]1O[C@H](O[C@H]2O[C@H](CO)[C@@H](O)[C@H](O)[C@H]2O)[C@H](O)[C@@H](O)[C@@H]1O [D-Trehalose]
Metabolized (compound as carbon source): yes | Toxic [1]: no | Carbon sources that Mortierella elongata AG77 can metabolize: can metabolize

O=C[C@H](O)[C@@H](O)[C@@H](O)CO [L-Arabinose]
Toxic: no | Metabolized (compound as carbon source): no
